{"source": "paper PMC7357011", "about": "“Adenosine-5′-Phosphosulfate- and Sulfite Reductases Activities of Sulfate-Reducing Bacteria from Various Environments” (Biomolecules, 2020)", "key": {"[1]": {"system": "T1, sulfite reductase (Desulfovibrio sp. 10)", "T1 construct": "gene dsrA; native enzyme in crude cell-free extract, not purified; NADH-oxidation read-out", "experiment": "NADH oxidation at […] nm, Lineweaver-Burk", "type": "biochemical", "conditions": "0.2 mmol/L NADH, EDTA; Tris-HCl pH 7.5 (started with HCl); 27 °C"}, "[2]": {"system": "T2, sulfite reductase (Desulfotomaculum sp. TC3)", "T2 construct": "gene dsrA; native enzyme in crude cell-free extract, not purified; NADH-oxidation read-out", "experiment": "NADH oxidation at […] nm, Lineweaver-Burk", "type": "biochemical", "conditions": "0.2 mmol/L NADH, EDTA; Tris-HCl pH 7.5 (started with HCl); 27 °C"}, "[3]": {"system": "T3, sulfite reductase (Desulfomicrobium sp. TC4)", "T3 construct": "gene dsrA; native enzyme in crude cell-free extract, not purified; NADH-oxidation read-out", "experiment": "NADH oxidation at […] nm, Lineweaver-Burk", "type": "cell-based", "conditions": "0.2 mmol/L NADH, EDTA; Tris-HCl pH 7.5 (started with HCl); 27 °C"}, "[4]": {"system": "T4, APS reductase (Desulfomicrobium sp. TC4)", "T4 construct": "gene aprA; native enzyme in crude cell-free extract, not purified; with Adenylylsulfate reductase subunit beta", "experiment": "AMP-dependent ferricyanide reduction at […] nm, Lineweaver-Burk", "type": "cell-based", "conditions": "reverse direction, EDTA, Tris-HCl pH 7.5, 27 °C, varied substrate sulfite (methods)"}, "[5]": {"system": "T5, APS reductase (Desulfotomaculum sp. TC3)", "T5 construct": "gene aprA; native enzyme in crude cell-free extract, not purified; with Adenylylsulfate reductase subunit beta", "experiment": "AMP-dependent ferricyanide reduction at […] nm, Lineweaver-Burk", "type": "cell-based", "conditions": "reverse direction, EDTA, Tris-HCl pH 7.5, 27 °C, varied substrate sulfite (methods)"}, "[6]": {"system": "T6, sulfite reductase (D. piger Vib-7)", "T6 construct": "gene dsrA; native enzyme in crude cell-free extract, not purified; NADH-oxidation read-out", "experiment": "NADH oxidation at […] nm, Lineweaver-Burk", "type": "cell-based, Desulfovibrio piger", "conditions": "0.2 mmol/L NADH, EDTA; Tris-HCl pH 8.0 (started with HCl); 35 °C"}, "[7]": {"system": "T7, sulfite reductase (D. desulfuricans DSM642)", "T7 construct": "gene dsrA; native enzyme in crude cell-free extract, not purified; NADH-oxidation read-out", "experiment": "NADH oxidation at […] nm, Lineweaver-Burk", "type": "cell-based, Desulfovibrio desulfuricans", "conditions": "0.2 mmol/L NADH, EDTA; Tris-HCl pH 7.5 (started with HCl); 27 °C"}, "[8]": {"biological_target": "T8, APS reductase (D. desulfuricans DSM642) (Desulfovibrio desulfuricans, UniProt Q9L767)", "T8 construct": "gene aprB; native enzyme in crude cell-free extract, not purified; with Adenylylsulfate reductase subunit beta", "T8 sequence (Q9L767 1-662)": "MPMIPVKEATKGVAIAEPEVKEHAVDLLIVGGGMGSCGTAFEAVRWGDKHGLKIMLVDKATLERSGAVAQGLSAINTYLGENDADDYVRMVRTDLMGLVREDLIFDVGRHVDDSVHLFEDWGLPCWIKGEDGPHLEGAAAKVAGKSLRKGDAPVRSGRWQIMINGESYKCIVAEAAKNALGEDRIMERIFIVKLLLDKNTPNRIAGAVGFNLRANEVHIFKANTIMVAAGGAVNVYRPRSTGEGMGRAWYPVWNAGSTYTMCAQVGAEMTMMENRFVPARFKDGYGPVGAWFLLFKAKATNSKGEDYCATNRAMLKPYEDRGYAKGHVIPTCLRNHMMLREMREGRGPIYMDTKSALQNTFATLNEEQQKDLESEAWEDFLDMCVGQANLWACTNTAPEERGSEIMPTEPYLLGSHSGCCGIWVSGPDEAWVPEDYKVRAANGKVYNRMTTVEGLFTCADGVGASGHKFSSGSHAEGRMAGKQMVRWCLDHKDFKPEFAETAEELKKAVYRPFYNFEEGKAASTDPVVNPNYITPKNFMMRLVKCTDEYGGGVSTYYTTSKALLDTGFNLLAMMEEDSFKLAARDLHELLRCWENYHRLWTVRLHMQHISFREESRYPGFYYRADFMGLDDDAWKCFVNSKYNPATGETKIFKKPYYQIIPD", "T8 sequence (Q9L768 1-162 partner)": "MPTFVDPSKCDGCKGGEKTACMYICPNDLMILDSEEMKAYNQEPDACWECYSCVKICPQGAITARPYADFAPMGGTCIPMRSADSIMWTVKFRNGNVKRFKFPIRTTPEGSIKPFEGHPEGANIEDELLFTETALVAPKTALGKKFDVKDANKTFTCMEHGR", "experiment": "AMP-dependent ferricyanide reduction at […] nm, Lineweaver-Burk", "type": "cell-based", "conditions": "reverse direction, EDTA, Tris-HCl pH 7.5, 27 °C, varied substrate sulfite (methods)"}, "[9]": {"system": "T9, sulfite reductase (Desulfovibrio sp. TC2)", "T9 construct": "gene dsrA; native enzyme in crude cell-free extract, not purified; NADH-oxidation read-out", "experiment": "NADH oxidation at […] nm, Lineweaver-Burk", "type": "cell-based", "conditions": "0.2 mmol/L NADH, EDTA; Tris-HCl pH 7.5 (started with HCl); 27 °C"}, "[10]": {"system": "T10, APS reductase (Desulfovibrio sp. TC2)", "T10 construct": "gene aprA; native enzyme in crude cell-free extract, not purified; with Adenylylsulfate reductase subunit beta", "experiment": "AMP-dependent ferricyanide reduction at […] nm, Lineweaver-Burk", "type": "cell-based", "conditions": "reverse direction, EDTA, Tris-HCl pH 7.5, 27 °C, varied substrate sulfite (methods)"}, "[11]": {"system": "T11, sulfite reductase (D. vulgaris DSM644)", "T11 construct": "gene dsrA; native enzyme in crude cell-free extract, not purified; NADH-oxidation read-out", "experiment": "NADH oxidation at […] nm, Lineweaver-Burk", "type": "biochemical, Nitratidesulfovibrio vulgaris", "conditions": "0.2 mmol/L NADH, EDTA; Tris-HCl pH 7.5 (started with HCl); 27 °C"}, "[12]": {"biological_target": "T12, sulfite reductase (D. orale Rod-9) (Desulfomicrobium orale, UniProt A0A109W607+A0A109W618)", "T12 construct": "gene AXF15_07380; native enzyme in crude cell-free extract, not purified; NADH-oxidation read-out", "T12 sequence (A0A109W618 1-437)": "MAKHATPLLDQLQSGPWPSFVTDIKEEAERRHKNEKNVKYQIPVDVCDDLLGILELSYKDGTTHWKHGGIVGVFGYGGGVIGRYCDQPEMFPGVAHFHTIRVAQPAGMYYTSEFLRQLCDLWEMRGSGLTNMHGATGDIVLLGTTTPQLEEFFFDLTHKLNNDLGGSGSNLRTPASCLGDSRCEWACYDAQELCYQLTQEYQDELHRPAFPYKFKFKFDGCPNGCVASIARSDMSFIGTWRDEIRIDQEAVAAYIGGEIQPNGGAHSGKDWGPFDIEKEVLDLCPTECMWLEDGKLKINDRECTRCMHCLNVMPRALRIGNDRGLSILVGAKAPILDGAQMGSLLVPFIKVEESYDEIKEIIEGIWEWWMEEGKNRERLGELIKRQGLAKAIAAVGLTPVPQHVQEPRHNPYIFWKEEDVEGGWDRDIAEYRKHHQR", "T12 sequence (A0A109W607 1-386)": "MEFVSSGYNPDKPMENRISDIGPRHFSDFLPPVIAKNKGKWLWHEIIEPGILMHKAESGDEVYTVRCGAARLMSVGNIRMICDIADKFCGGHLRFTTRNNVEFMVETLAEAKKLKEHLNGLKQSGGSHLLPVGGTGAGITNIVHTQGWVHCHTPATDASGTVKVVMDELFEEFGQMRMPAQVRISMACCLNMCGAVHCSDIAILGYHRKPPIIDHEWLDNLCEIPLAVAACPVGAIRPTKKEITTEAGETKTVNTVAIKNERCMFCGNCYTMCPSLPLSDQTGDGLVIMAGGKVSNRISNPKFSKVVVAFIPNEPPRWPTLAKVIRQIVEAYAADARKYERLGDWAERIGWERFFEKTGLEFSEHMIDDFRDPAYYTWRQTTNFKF", "experiment": "NADH oxidation at […] nm, Lineweaver-Burk", "type": "cell-based", "conditions": "0.2 mmol/L NADH, EDTA; Tris-HCl pH 8.0 (started with HCl); 35 °C"}}}
{"substance": "sulfite", "values": [{"measurement": "Km", "setting": "[1]", "value": 46.7, "unit": "mM"}, {"measurement": "Km", "setting": "[2]", "value": 46.2, "unit": "mM"}, {"measurement": "Km", "setting": "[3]", "value": 19.4, "unit": "mM"}, {"measurement": "Km", "setting": "[4]", "value": 1.1, "unit": "mM"}, {"measurement": "Km", "setting": "[5]", "value": 1.49, "unit": "mM"}, {"measurement": "Km", "setting": "[6]", "value": 3.53, "unit": "mM"}, {"measurement": "Km", "setting": "[7]", "value": 9.97, "unit": "mM"}, {"measurement": "Km", "setting": "[8]", "value": 2.12, "unit": "mM"}, {"measurement": "Km", "setting": "[9]", "value": 26.1, "unit": "mM"}, {"measurement": "Km", "setting": "[10]", "value": 1.59, "unit": "mM"}, {"measurement": "Km", "setting": "[11]", "value": 31.7, "unit": "mM"}, {"measurement": "Km", "setting": "[12]", "value": 3.86, "unit": "mM"}]}
